The subject of data set [1] is homozygous mutant mice (CRFR2 −/−). Kind of data set: Metrazol dose test (seizure susceptibility), CRFR2 homozygous mutant mice. The format is in vivo, mouse. The following applies: for Dose to Death / Dose to Extension (tonic extension) / Dose to T/C (tonic/clonic seizure) / Dose to Twitch: genotype −/−. How it is done:
(§1) A metrazol administration test can be used to screen animals for varying susceptibilities to seizures or similar events. For example, a 5 mg/ml solution of metrazol can be infused through the tail vein of a mouse at a rate of, e.g., approximately 0.375 ml/min. The infusion will cause all mice to experience seizures, followed by death. Those mice that enter the seizure stage the soonest are believed to be more prone to seizures.
(§2) Phenotypic Analysis. The transgenic mice were analyzed for phenotypic changes.

The subject of data set [2] is wild-type control mice (+/+). Put plainly: Metrazol dose test (seizure susceptibility), wild-type control mice. The class given is in vivo, mouse. To be noted: genotype +/+. The method, then:
as §1, §2

For a further data set, the target named is T1, CRF2 receptor (Homo sapiens, UniProt Q13324).
T1 sequence (Q13324 1-411): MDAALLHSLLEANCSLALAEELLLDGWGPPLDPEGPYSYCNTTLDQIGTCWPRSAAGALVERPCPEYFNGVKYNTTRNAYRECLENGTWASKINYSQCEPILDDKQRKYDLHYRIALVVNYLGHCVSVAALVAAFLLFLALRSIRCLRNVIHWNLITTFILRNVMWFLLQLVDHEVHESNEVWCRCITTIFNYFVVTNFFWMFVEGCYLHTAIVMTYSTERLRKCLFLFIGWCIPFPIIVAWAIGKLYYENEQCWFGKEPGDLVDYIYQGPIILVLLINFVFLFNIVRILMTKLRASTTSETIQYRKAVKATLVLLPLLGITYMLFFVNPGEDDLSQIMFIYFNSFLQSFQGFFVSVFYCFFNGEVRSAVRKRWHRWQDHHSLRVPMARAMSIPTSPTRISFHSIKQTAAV
To be noted: transfected cells expressing the CRF2 receptor; cited from earlier work.

Data set [3] deals with CRHR2 −/− mice. The following applies: systemic urocortin, CRHR2 −/− mice in contrast to wildtype; cited from earlier work.
Data set [4] relates to CRHR2 −/− mice. To be noted: intravenously injected, mutant mice; cited from earlier work.
Data set [5] relates to CRHR2 −/− mice. The following applies: CRHR2 −/− mice following urocortin administration; recovered more rapidly than wildtype; cited from earlier work.

No end group written: not given here.

Data on three molecules can be found in patent publication US20020148001A1, “Transgenic mice containing CRFR2 corticotropin-releasing factor receptor gene disruptions” (priority 2000, published 2002).

`C1CCc2nnnn2CC1` [metrazol]: the “Dose to Death” value in data set [1] (F2N0) is listed as 127.39 mg/kg body weight; in data set [1] (F2N1), 148.84 mg/kg body weight; in data set [2] (F2N0), 136.65 mg/kg body weight; in data set [2] (F2N1), 124.96 mg/kg body weight. Besides, the “Dose to Extension (tonic extension)” value in data set [1] (F2N0) was 98.20 mg/kg body weight; in data set [1] (F2N1), 119.75 mg/kg body weight; in data set [2] (F2N0) it was 113.63 mg/kg body weight; in data set [2] (F2N1), 95.46 mg/kg body weight. The “Dose to T/C (tonic/clonic seizure)” value is on record as 44.38 mg/kg body weight in data set [1] (F2N0), 37.93 mg/kg body weight in data set [1] (F2N1), 43.46 mg/kg body weight in data set [2] (F2N0) and 34.36 mg/kg body weight in data set [2] (F2N1). Further, the “Dose to Twitch” value in data set [1] (F2N0) was found to be 34.90 mg/kg body weight; in data set [1] (F2N1) it was 24.18 mg/kg body weight; in data set [2] (F2N0, tail vein infusion) it was 36.93 mg/kg body weight; in data set [2] (F2N1), 23.71 mg/kg body weight. The “metrazol response threshold, dose to show stereotypical seizure responses” value in data set [1] (homozygotes compared to wild-types, particularly tonic extension and death) is “higher dose of metrazol than wild-types”.

For the molecule corticotropin-releasing hormone [CRH], the “intracellular cAMP” value in the data set with CRF2 receptor is listed as “increase”.

Consider “urocortin (DDPPLSIDLTFHLLRTLLELARTQSQRERAEQNRIIFDSV; ends and bridges not checked; UniProt P81615 81-120, looked up)”, for which the “enhanced cardiac performance or reduced blood pressure” value in the data set on CRHR2 −/− mice [3] is “failed to show the enhanced cardiac performance or reduced blood pressure”. The “effect on mean arterial pressure” value in the data set with CRHR2 −/− mice [4] was “no effect”. For the same molecule, in the data set on CRHR2 −/− mice [5], the feeding entry is “initially suppressed”.
